Reference: patent US12336991B2, “Factor XIIA inhibitors” (UNIVERSITY OF LEEDS, priority 2018, dated 2025)
pKi: −log10 of the molar value.

Assays:
Assay type in all cases: biochemical
FXIIa = target: T1, FXIIa (Homo sapiens, UniProt P00748); assay: Determination of Factor XIIa inhibition, chromogenic substrate S-2302 assay; conditions: human FXIIa alpha
T1 sequence (P00748 373-615 limits assumed): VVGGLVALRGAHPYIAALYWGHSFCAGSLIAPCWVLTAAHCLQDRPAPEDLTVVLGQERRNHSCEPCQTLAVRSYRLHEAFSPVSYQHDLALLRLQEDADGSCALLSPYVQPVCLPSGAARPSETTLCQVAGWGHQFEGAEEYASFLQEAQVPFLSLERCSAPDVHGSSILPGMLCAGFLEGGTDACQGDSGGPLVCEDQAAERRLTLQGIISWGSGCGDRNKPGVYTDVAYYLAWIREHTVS
T1 sequence (P00748 20-372 partner limits assumed): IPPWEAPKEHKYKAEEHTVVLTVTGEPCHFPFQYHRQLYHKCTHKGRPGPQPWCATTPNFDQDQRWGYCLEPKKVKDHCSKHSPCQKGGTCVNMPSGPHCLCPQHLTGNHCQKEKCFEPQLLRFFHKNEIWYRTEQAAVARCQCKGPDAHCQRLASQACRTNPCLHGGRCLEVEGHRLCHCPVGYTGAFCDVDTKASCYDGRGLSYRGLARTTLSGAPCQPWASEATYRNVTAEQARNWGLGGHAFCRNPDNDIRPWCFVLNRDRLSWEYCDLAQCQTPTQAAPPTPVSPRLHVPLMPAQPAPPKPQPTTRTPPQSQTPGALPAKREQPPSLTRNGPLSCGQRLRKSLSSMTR
Method in brief: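 FXIIa (10 nM) preincubated with compound 10 min at 37° C. in 50 mM Tris, 137 mM NaCl pH 7.4, 5% DMSO, top concentration 500 μM, then S-2302 added ([…]). Absorbance at 405 nm read kinetically for 3 h; IC50 from initial rates, converted to Ki by Cheng-Prusoff.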

thrombin = target: T2, thrombin (Homo sapiens, UniProt P00734); assay: Determination of selectivity: thrombin inhibition, chromogenic substrate GPR assay; conditions: fold selectivity for FXIIa over thrombin
T2 construct: FXa (5 nM) and thrombin (5 nM)
Method in brief: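 Thrombin (5 nM) preincubated with compound 10 min at 37 °C in 50 mM Tris, 137 mM NaCl, pH 7.4, 5% DMSO, then GPR substrate ([…]) added. Absorbance at 405 nm read kinetically for 3 h; IC50 from initial rates, converted to Ki via Ki=IC50/(1+[S]/Km).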

FXa = FXa (Homo sapiens, UniProt P00742); assay: Determination of selectivity: FXa inhibition, chromogenic substrate S2765 assay; conditions: fold selectivity for FXIIa over FXa
Sequence of FXa (P00742 235-488 limits assumed): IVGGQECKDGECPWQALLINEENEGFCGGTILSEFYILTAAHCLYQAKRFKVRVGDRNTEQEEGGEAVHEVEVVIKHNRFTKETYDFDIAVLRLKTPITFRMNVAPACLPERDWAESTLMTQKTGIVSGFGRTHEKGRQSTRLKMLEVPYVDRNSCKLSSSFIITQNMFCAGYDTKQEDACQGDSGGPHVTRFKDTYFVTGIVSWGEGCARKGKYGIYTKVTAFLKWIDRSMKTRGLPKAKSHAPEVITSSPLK
Sequence of FXa (P00742 41-179 partner limits assumed): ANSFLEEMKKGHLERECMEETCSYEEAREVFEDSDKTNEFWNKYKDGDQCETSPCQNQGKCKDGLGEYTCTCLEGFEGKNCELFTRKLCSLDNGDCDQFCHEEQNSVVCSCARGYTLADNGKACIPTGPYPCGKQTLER
Method in brief: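 Human FXa (5 nM) preincubated with compound (top 500 μM, 5% DMSO) 10 min at 37 °C in 50 mM Tris, 137 mM NaCl pH 7.4, then S2765 ([…]) added; A405 kinetics over 3 h at 37 °C. IC50 from initial rates, converted to Ki via Cheng-Prusoff.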

Row | pKi (FXIIa) | FXa (human)/FXIIa alpha (human) (FXa) | SMILES | Thrombin (human)/FXIIa alpha (human) (thrombin)
1 | 5.70 to 6.70 | ∘∘∘ | COc1ccc(C[C@@H]2C[C@@H](C(=O)NCc3ccc4c(c3)c(C)nn4C)N(C(=O)[C@H](N)CCC(=O)N3CCCC3)C2)cc1 [Example M05447] | +++ (fold selectivity values greater than 100)
2 | 5.70 to 6.70 | ∘∘∘ | NCc1ccc(CNC(=O)[C@@H]2C[C@@H](Cc3ccncc3)CN2C(=O)[C@H](N)CCc2ccccc2)cc1 [Example M05156] | + (fold selectivity values less than 10)
3 | > 6.70 | ∘∘∘ | Cn1nnc2cc(CNC(=O)[C@@H]3C[C@@H](Cc4ccc(Br)cc4)CN3C(=O)[C@H](N)CCC(=O)N3CCCC3)ccc21 [Example M05326] | +++ (fold selectivity values greater than 100)
4 | > 6.70 | ∘∘∘ | COc1ccc(C[C@@H]2C[C@@H](C(=O)NCc3ccc4c(c3)nnn4C)N(C(=O)[C@H](N)CCC(=O)N3C(C)CCC3C)C2)cc1 (stereo partly drawn) [Example M05399] | +++ (fold selectivity values greater than 100)
5 | 5.70 to 6.70 | ∘∘∘ | Cn1nccc1-c1ccc(C[C@@H]2C[C@@H](C(=O)NCc3ccc4c(c3)nnn4C)N(C(=O)[C@H]3C[C@@H](c4ccccc4)CN3)C2)cc1 [Example M05367] | +++ (fold selectivity values greater than 100)
6 | 5.70 to 6.70 | ∘∘∘ | CN(C)[C@H](CCC(=O)N1CCCC1)C(=O)N1C[C@H](Cc2ccncc2)C[C@H]1C(=O)NCc1ccc2c(c1)nnn2C [Example M05220] | +++ (fold selectivity values greater than 100)
7 | < 5.70 | ∘∘ | COc1ccc(C[C@@H]2C[C@@H](C(=O)NCc3ccc4c(c3)nnn4C)N(C(=O)[C@H]3C[C@@H](c4ccncc4)CN3)C2)cc1 [Example M05353] | ++ (fold selectivity value of 10 to 100)
8 | < 5.70 | ∘∘ | Cn1nnc2cc(CNC(=O)[C@@H]3C[C@@H](Cc4cccc(C(F)(F)F)c4)CN3C(=O)[C@H]3C[C@@H](c4ccccc4)CN3)ccc21 [Example M05356] | ++ (fold selectivity value of 10 to 100)
9 | < 5.70 | ∘∘ | COc1ccc(C[C@@H]2C[C@@H](C(=O)NCc3ccc4c(c3)nnn4C)N(C(=O)[C@H]3CC(c4c(C)noc4C)CN3)C2)cc1 (stereo partly drawn) [Example M05409] | + (fold selectivity values less than 10)
10 | < 5.70 | ∘∘ | COc1ccc(C[C@@H]2C[C@@H](C(=O)NCc3ccc4c(c3)nnn4C)N(C(=O)[C@H]3CC(c4cncn4C)CN3)C2)cc1 (stereo partly drawn) [Example M05446] | ++ (fold selectivity value of 10 to 100)
11 | 5.70 to 6.70 | ∘∘∘ | COc1ccc(C[C@@H]2C[C@@H](C(=O)NCc3cc4ccncc4o3)N(C(=O)[C@H](N)CCC(=O)N3CCCC3)C2)cc1 [Example M05465] | +++ (fold selectivity values greater than 100)
12 | 5.70 to 6.70 | ∘ | Nc1nccc2cc(CNC(=O)[C@@H]3C[C@@H](c4ccccc4)CN3C(=O)[C@H](N)CCC(=O)N3CCCC3)ccc12 [Example M05282] | ++ (fold selectivity value of 10 to 100)
13 | 5.70 to 6.70 | ∘∘∘ | COc1ccc(C[C@@H]2C[C@@H](C(=O)NCc3ccc4c(c3)nnn4C)N(C(=O)C3NCCc4cc(Cl)ccc43)C2)cc1 (stereo partly drawn) [Example M05430] | +++ (fold selectivity values greater than 100)
14 | > 6.70 | ∘∘∘ | COc1ccc(C[C@@H]2C[C@@H](C(=O)NCc3cc4cnccc4[nH]3)N(C(=O)[C@H]3C[C@@H](c4cnn(C)c4)CN3)C2)cc1 [Example M00959] | +++ (fold selectivity values greater than 100)
15 | < 5.70 | ∘∘ | COc1ccc(C[C@@H]2C[C@@H](C(=O)NCc3ccc4c(c3)nnn4C)N(C(=O)C3NCCc4cc(Cl)ccc43)C2)cc1 (stereo partly drawn) [Example M05431] | ++ (fold selectivity value of 10 to 100)
16 | < 5.70 | ∘∘∘ | COc1ccc(C[C@@H]2C[C@@H](C(=O)NCc3nc4cnccc4[nH]3)N(C(=O)[C@H](N)CCC(=O)N3CCCC3)C2)cc1 [Example M00973] | +++ (fold selectivity values greater than 100)
17 | > 6.70 | ∘∘∘ | COc1ccc(C[C@@H]2C[C@@H](C(=O)NCc3ccc4c(c3)nnn4C)N(C(=O)[C@H](N)CCC(=O)N3CCCC3(C)C)C2)cc1 [Example M05450] | +++ (fold selectivity values greater than 100)
18 | 5.70 to 6.70 | ∘∘ | Nc1nccc2cc(CNC(=O)[C@@H]3C[C@@H](Cc4cccc(Cl)c4)CN3C(=O)[C@H](N)CCC(=O)N3CCCC3)ccc12 [Example M05266] | + (fold selectivity values less than 10)
19 | 5.70 to 6.70 | ∘∘∘ | COc1ccc(C[C@@H]2C[C@@H](C(=O)NCc3ccc4c(c3)nnn4C)N(C(=O)C3NCCc4cc(OC)ccc43)C2)cc1 (stereo partly drawn) [Example M05442] | +++ (fold selectivity values greater than 100)
20 | 5.70 to 6.70 | ∘∘∘ | Cn1nnc2cc(CNC(=O)[C@@H]3CC(Cc4ccnc(F)c4)CN3C(=O)[C@H](N)CCC(=O)N3CCCC3)ccc21 (stereo partly drawn) [Example M05314] | ++ (fold selectivity value of 10 to 100)
21 | < 5.70 | ∘∘ | Cc1ccc(CC[C@@H](N)C(=O)N2CCC[C@H]2C(=O)NCc2ccc(CN)cc2)cc1 [Example M00787] | + (fold selectivity values less than 10)
22 | > 6.70 | ∘∘∘ | Cn1nc(Cl)c2cc(CNC(=O)[C@@H]3C[C@@H](Cc4cccnc4)CN3C(=O)[C@H](N)CCC(=O)N3CCCC3)ccc21 [Example M05224] | +++ (fold selectivity values greater than 100)
23 | 5.70 to 6.70 | ∘∘ | Nc1cc(CNC(=O)[C@@H]2C[C@H](NC(=O)c3ccccc3)CN2C(=O)[C@H](N)CCc2ccccc2)ccn1 [Example M05142] | + (fold selectivity values less than 10)
24 | 5.70 to 6.70 | ∘∘ | COc1ccc(C[C@@H]2C[C@@H](C(=O)NCc3ccc4c(c3)nnn4C)N(C(=O)[C@H]3CC(c4ccc(F)cc4)CN3)C2)cc1 (stereo partly drawn) [Example M05340] | ++ (fold selectivity value of 10 to 100)
25 | > 6.70 | ∘∘∘ | COc1ccc(C[C@@H]2C[C@@H](C(=O)NCc3ccc4c(c3)nnn4C)N(C(=O)[C@H]3CC(c4ccc[nH]c4=O)CN3)C2)cc1 (stereo partly drawn) [Example M05419] | +++ (fold selectivity values greater than 100)
26 | 5.70 to 6.70 | ∘∘ | COc1cc(CNC(=O)[C@@H]2C[C@H](C)CN2C(=O)[C@H](N)CCc2ccccc2)ccc1CN [Example M05073] | + (fold selectivity values less than 10)
